Laboratory results: patent US6613718B2, “Aryl ether derivatives and processes for their preparation and herbicidal and desiccant compositions containing them” (Ishihara Sangyo Kaisha, Ltd., priority 2001, dated 2003)

Tests used:
[1] = system: barnyardgrass (Echinochloa crus-galli, ECHCG); assay: Pre-emerge greenhouse herbicide activity screening, phytotoxicity rating; type: in vivo; settings: 14 days after application
Method in brief: (§1)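 Herbicidal effect was recorded as percent-style phytotoxicity, 0 (none) to 100 (complete plant death), two weeks post-application. Applications were made over soil (pre-emerge, sown a day earlier) or over 2-3 leaf plants (post-emerge), using acetone solutions at 15–1000 g ai/ha.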

[2] = system: common ragweed (Ambrosia artemisiifolia L., AMBEL); assay: as above; type: in vivo; settings: 14 days after application
Method in brief: as §1

[3] = system: green foxtail (Setaria viridis, SETVI); assay: as above; type: in vivo; settings: 14 days after application
Method in brief: as §1

[4] = system: ivyleaf morningglory (Ipomoea hederacea, IPOHE); assay: as above; type: in vivo; settings: 14 days after application
Method in brief: as §1

[5] = system: johnsongrass (Sorghum halepense, SORHA); assay: as above; type: in vivo; settings: 14 days after application
Method in brief: as §1

[6] = system: lambsquarters (Chenopodium album, CHEAL); assay: as above; type: in vivo; settings: 14 days after application
Method in brief: as §1

[7] = system: large crabgrass (Digitaria sanguinalis, DIGSA); assay: as above; type: in vivo; settings: 14 days after application
Method in brief: as §1

[8] = system: redroot pigweed (Amaranthus retroflexus, AMARE); assay: as above; type: in vivo; settings: 14 days after application
Method in brief: as §1

[9] = system: sicklepod (Cassia obtusifolia, CASOB); assay: as above; type: in vivo; settings: 14 days after application
Method in brief: as §1

[10] = system: velvetleaf (Abutilon theophrasti, ABUTH); assay: as above; type: in vivo; settings: 14 days after application
Method in brief: as §1

[11] = system: field corn (Zea mays L., var. Dekalb 535, CORN); assay: Pre-emerge greenhouse screening, crop safety (phytotoxicity rating); type: in vivo; settings: 14 days after application
Method in brief: as §1

[12] = system: soybean (Glycine max L., var. Pella 86, SOY); assay: as above; type: in vivo; settings: 14 days after application
Method in brief: as §1

[13] = system: upland rice (Oryza sp., var.Tebonnet, RICE); assay: as above; type: in vivo; settings: 14 days after application
Method in brief: as §1

[14] = system: barnyardgrass (Echinochloa crus-galli, ECHCG); assay: Post-emerge greenhouse herbicide activity screening, phytotoxicity rating; type: in vivo; settings: 14 days after application
Method in brief: as §1

[15] = system: common ragweed (Ambrosia artemisiifolia L., AMBEL); assay: as above; type: in vivo
Method in brief: as §1

[16] = system: green foxtail (Setaria viridis, SETVI); assay: as above; type: in vivo
Method in brief: as §1

[17] = system: ivyleaf morningglory (Ipomoea hederacea, IPOHE); assay: as above; type: in vivo; settings: 14 days after application
Method in brief: as §1

[18] = system: johnsongrass (Sorghum halepense, SORHA); assay: as above; type: in vivo; settings: 14 days after application
Method in brief: as §1

[19] = system: lambsquarters (Chenopodium album, CHEAL); assay: as above; type: in vivo
Method in brief: as §1

[20] = system: large crabgrass (Digitaria sanguinalis, DIGSA); assay: as above; type: in vivo; settings: 14 days after application
Method in brief: as §1

[21] = system: redroot pigweed (Amaranthus retroflexus, AMARE); assay: as above; type: in vivo
Method in brief: as §1

[22] = system: sicklepod (Cassia obtusifolia, CASOB); assay: as above; type: in vivo
Method in brief: as §1

[23] = system: velvetleaf (Abutilon theophrasti, ABUTH); assay: as above; type: in vivo; settings: 14 days after application
Method in brief: as §1

[24] = Post-emerge greenhouse screening, crop safety / corn selectivity (phytotoxicity rating); type: in vivo, Zea mays L.; settings: Zea mays (field corn), in vivo, 62.5 g ai/ha
Method in brief: as §1

[25] = system: field corn (Zea mays L., var. Dekalb 535, CORN); assay: as above; type: in vivo; settings: 14 days after application
Method in brief: as §1

[26] = system: soybean (Glycine max L., var. Pella 86, SOY); assay: Post-emerge greenhouse screening, crop safety (phytotoxicity rating); type: in vivo; settings: 14 days after application
Method in brief: as §1

[27] = system: upland rice (Oryza sp., var.Tebonnet, RICE); assay: as above; type: in vivo; settings: 14 days after application
Method in brief: as §1

[28] = 125 g ai/ha, 14 days after application
[29] = 250 g ai/ha, 14 days after application

Cn1nc(-c2cc(Oc3ncccn3)c(Cl)cc2F)c(Cl)c1[S+]([O-])C(F)F (stereo not drawn) [Compound 5-1]
ECHCG phytotoxicity rating (0-100 scale) ([1]; 125 g ai/ha): 100
ECHCG phytotoxicity rating (0-100 scale) ([1]; 250 g ai/ha): 100
AMBEL phytotoxicity rating (0-100 scale) ([2]; 125 g ai/ha): 75
AMBEL phytotoxicity rating (0-100 scale) ([2]; 250 g ai/ha): 100
SETVI phytotoxicity rating (0-100 scale) ([3]; 125 g ai/ha): 100
SETVI phytotoxicity rating (0-100 scale) ([3]; 250 g ai/ha): 100
IPOHE phytotoxicity rating (0-100 scale) ([4]; 125 g ai/ha): 99
IPOHE phytotoxicity rating (0-100 scale) ([4]; 250 g ai/ha): 100
SORHA phytotoxicity rating (0-100 scale) ([5]; 125 g ai/ha): 100
SORHA phytotoxicity rating (0-100 scale) ([5]; 250 g ai/ha): 100
CHEAL phytotoxicity rating (0-100 scale) ([6]; 125 g ai/ha): 100
CHEAL phytotoxicity rating (0-100 scale) ([6]; 250 g ai/ha): 100
DIGSA phytotoxicity rating (0-100 scale) ([7]; 125 g ai/ha): 100
DIGSA phytotoxicity rating (0-100 scale) ([7]; 250 g ai/ha): 100
AMARE phytotoxicity rating (0-100 scale) ([8]; 125 g ai/ha): 100
AMARE phytotoxicity rating (0-100 scale) ([8]; 250 g ai/ha): 100
CASOB phytotoxicity rating (0-100 scale) ([9]; 125 g ai/ha): 60
CASOB phytotoxicity rating (0-100 scale) ([9]; 250 g ai/ha): 90
ABUTH phytotoxicity rating (0-100 scale) ([10]; 125 g ai/ha): 99
ABUTH phytotoxicity rating (0-100 scale) ([10]; 250 g ai/ha): 100
CORN crop damage, phytotoxicity rating (0-100 scale) ([11]; 125 g ai/ha): 40
CORN crop damage, phytotoxicity rating (0-100 scale) ([11]; 250 g ai/ha): 50
SOY crop damage, phytotoxicity rating (0-100 scale) ([12]; 125 g ai/ha): 0
SOY crop damage, phytotoxicity rating (0-100 scale) ([12]; 250 g ai/ha): 65
RICE crop damage, phytotoxicity rating (0-100 scale) ([13]; 125 g ai/ha): 55
RICE crop damage, phytotoxicity rating (0-100 scale) ([13]; 250 g ai/ha): 80
ECHCG phytotoxicity rating (0-100 scale) ([14]; 125 g ai/ha): 75
ECHCG phytotoxicity rating (0-100 scale) ([14]; 250 g ai/ha): 65
AMBEL phytotoxicity rating (0-100 scale) ([15]; 31.3 g ai/ha): 50
AMBEL phytotoxicity rating (0-100 scale) ([15]; 62.5 g ai/ha): 60
AMBEL phytotoxicity rating (0-100 scale) [15, 28]: 65
AMBEL phytotoxicity rating (0-100 scale) [15, 29]: 75
SETVI phytotoxicity rating (0-100 scale) ([16]; 31.3 g ai/ha): 50
SETVI phytotoxicity rating (0-100 scale) ([16]; 62.5 g ai/ha): 60
SETVI phytotoxicity rating (0-100 scale) [16, 28]: 95
SETVI phytotoxicity rating (0-100 scale) [16, 29]: 95
IPOHE phytotoxicity rating (0-100 scale) ([17]; 125 g ai/ha): 100
IPOHE phytotoxicity rating (0-100 scale) ([17]; 250 g ai/ha): 100
SORHA phytotoxicity rating (0-100 scale) ([18]; 125 g ai/ha): 75
SORHA phytotoxicity rating (0-100 scale) ([18]; 250 g ai/ha): 75
CHEAL phytotoxicity rating (0-100 scale) ([19]; 31.3 g ai/ha): 100
CHEAL phytotoxicity rating (0-100 scale) ([19]; 62.5 g ai/ha): 100
CHEAL phytotoxicity rating (0-100 scale) [19, 28]: 100
CHEAL phytotoxicity rating (0-100 scale) [19, 29]: 100
DIGSA phytotoxicity rating (0-100 scale) ([20]; 125 g ai/ha): 50
DIGSA phytotoxicity rating (0-100 scale) ([20]; 250 g ai/ha): 55
AMARE phytotoxicity rating (0-100 scale) ([21]; 31.3 g ai/ha): 98
AMARE phytotoxicity rating (0-100 scale) ([21]; 62.5 g ai/ha): 100
AMARE phytotoxicity rating (0-100 scale) [21, 28]: 100
AMARE phytotoxicity rating (0-100 scale) [21, 29]: 100
CASOB phytotoxicity rating (0-100 scale) ([22]; 31.3 g ai/ha): 35
CASOB phytotoxicity rating (0-100 scale) ([22]; 62.5 g ai/ha): 85
CASOB phytotoxicity rating (0-100 scale) [22, 28]: 99
CASOB phytotoxicity rating (0-100 scale) [22, 29]: 100
ABUTH phytotoxicity rating (0-100 scale) ([23]; 125 g ai/ha): 100
ABUTH phytotoxicity rating (0-100 scale) ([23]; 250 g ai/ha): 100
corn phytotoxicity rating (0-100 scale) at 14 days [24]: 5
CORN crop damage, phytotoxicity rating (0-100 scale) ([25]; 125 g ai/ha): 7
CORN crop damage, phytotoxicity rating (0-100 scale) ([25]; 250 g ai/ha): 8
SOY crop damage, phytotoxicity rating (0-100 scale) ([26]; 125 g ai/ha): 65
SOY crop damage, phytotoxicity rating (0-100 scale) ([26]; 250 g ai/ha): 55
RICE crop damage, phytotoxicity rating (0-100 scale) ([27]; 125 g ai/ha): 50
RICE crop damage, phytotoxicity rating (0-100 scale) ([27]; 250 g ai/ha): 55
